Source: PubChem BioAssay AID1963827 (Molecular Pharmacology Branch, DTP, NCI, 2024)
“And” between values parts separate entries of the source, which are not always exact repeats. Equal entries are not always repeated.

Tested on: 994946-033-R-J1-PDC complex spheroid viability
Test: Anticancer human tumor 994946-033-R-J1-PDC patient-derived melanoma cell line growth inhibition [POLQ]
Settings: for viability, T/C: stronger effect = lower value; active means viability on the fitted dose curve at most 10% of control; inactive means the rest
Procedure: Multicellular complex tumor spheroid response to Polymerase (POL) inhibitors (novobiocin, ART-558, RP6685) in combination with a variety of drugs and investigational agents in selected tumor cell lines
The POL inhibitors (novobiocin, ART-558, and RP6685) were evaluated both individually and in combination with standard of care and investigational anticancer small molecules within a complex spheroid model of solid tumors. . Complex spheroids include a stromal component modeled by human endothelial cells (HUVEC) and fibroblasts modeled by human mesenchymal stem cells (MSCs). The concentration ranges selected for each drug and investigational agent were based upon clinically achievable concentrations if the clinical Cmax of the agent was known.
Compounds. The drugs and investigational agents: novobiocin (NSC847541), ART-558 (NSC835418), RP-6685 (NSC848927), peposertib (NSC802822), ceralasertib (NSC780249), elimusertib (NSC800525), camonsertib (NSC841442), AZD-1390 (NSC803789), olaparib (NSC753686), talazoparib (NSC767125), rucaparib (NSC756644), sotorasib (NSC818433), MRTX-1133 (NSC836407), SN-38 (NSC673596), topotecan (NSC609699), epotoside (NSC141540), doxorubicin (NSC123127), gemcitabine (NSC613327), 5-fluorouracil (NSC19893), paclitaxel (NSC125973), vemurafenib (NSC761431), MSA-2 (NSC828583), SN-011 (NSC837082), adavosertib (NSC754352), prexasertib (NSC758257), carboplatin (NSC241240) and oxaliplatin (NSC266046), were obtained from the National Cancer Institute (NCI) Developmental Therapeutics Program Chemical Repository (21). The FDA-approved anticancer drug set is available from the Developmental Therapeutics Program at https://dtp.cancer.gov/organization/dscb/obtaining/. […] The stock solutions were prepared in dimethyl sulfoxide (DMSO, Sigma-Aldrich, St. Louis, MO, cat. D2650), except for the platinum compounds which were prepared in saline (Quality Biological, Gaithersburg, MD, cat. 114-055-101), at 800-fold the tested concentration and stored at -70 degrees C prior to their use. All drugs and investigational agents were tested over a range starting from a high concentration at or near the clinical Cmax and decreasing in half-log increments. If the clinical Cmax for an agent had not been determined, the highest concentration tested was 10 microM, except for SN-38, which was tested at a high concentration of 1 microM.
Cell Culture. All cells were maintained in an incubator at 37 degrees C and 5% CO2 with 95% humidity. The PDC lines were cultured according to standard operating procedures established by the NCI PDMR (https://pdmr.cancer.gov). Table 3 of the manuscript, lists the cell lines along with the number of the three cell types plated to form the mct-spheroids and media for tumor cell growth. After thawing, all PDC lines, except 997537-175-T-J1-PDC and 415267-285-R-J2-PDC, were cultured in Matrigel-coated flasks prepared with a working solution of 1X Ham's F-12 nutrient mix, without supplementation (Thermo Fisher Scientific, cat. 11765054), 100 U/mL penicillin-streptomycin (Thermo Fisher Scientific, cat. 15140122), and 2.5% Matrigel (Corning Inc., Corning, NY, cat. 354248) for the first three passages. The two PDC lines 997537-175-T-J1-PDC and 415267-285-R-J2-PDC were cultured on uncoated flasks. The 857933-349-R-J2-PDC line was cultured in 6C/Colon 1B media containing advanced DMEM/F-12 (Thermo Fisher Scientific, cat. 12634028), 10 mM HEPES (Thermo Fisher Scientific, cat. 15630080), 1X GlutaMAX supplement (Thermo Fisher Scientific, cat. 35050061), 0.1 mg/mL primocin (InvivoGen, San Diego, CA, cat. ant-pm-2), 10% defined fetal bovine serum, heat inactivated (HyClone Laboratories Inc., Logan, UT, cat. SH30070.03HI), 50% L-WRN conditioned media (ATCC, cat. CRL-3276), 1.25 mM N-Acetyl-L-cysteine (Sigma-Aldrich, cat. A9165), 10 mM nicotinamide (Sigma-Aldrich, cat. N0636), 1X B-27 supplement (Thermo Fisher Scientific, cat. 17504044), 1X N-2 supplement (Thermo Fisher Scientific, cat. […]
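Further: spheroids exposed to drugs for 7 days.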
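Wherever viability, T/C is given: 100% = DMSO vehicle treated spheroids.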

CNCc1ccc(-c2[nH]c3cc(F)cc4c3c2CCNC4=O)cc1 + Cc1cccc(N(C)C(=O)C2C(O)CCN2c2nc(C)cc(C(F)(F)F)c2C#N)c1
inactive: viability, T/C (second compound 0.0316 µM, first compound 0.0316 µM) 88.4% | viability, T/C (second compound 0.0316 µM, first compound 0.1 µM) 103% | viability, T/C (second compound 0.0316 µM, first compound 0.316 µM) 132% | viability, T/C (second compound 0.0316 µM, first compound 1 µM) 77.5% | viability, T/C (second compound 0.0316 µM, first compound 3.16 µM) 94.8% | viability, T/C (second compound 0.0316 µM, first compound 10 µM) 78.8% | viability, T/C (second compound 0.1 µM, first compound 0.0316 µM) 85.5% | viability, T/C (second compound 0.1 µM, first compound 0.1 µM) 117% | viability, T/C (second compound 0.1 µM, first compound 0.316 µM) 102% | viability, T/C (second compound 0.1 µM, first compound 1 µM) 81.4% | viability, T/C (second compound 0.1 µM, first compound 3.16 µM) 92% | viability, T/C (second compound 0.1 µM, first compound 10 µM) 92.7% | viability, T/C (second compound 0.316 µM, first compound 0.0316 µM) 113% | viability, T/C (second compound 0.316 µM, first compound 0.1 µM) 115% | viability, T/C (second compound 0.316 µM, first compound 0.316 µM) 90.9% | viability, T/C (second compound 0.316 µM, first compound 1 µM) 78.8% | viability, T/C (second compound 0.316 µM, first compound 3.16 µM) 92.8% | viability, T/C (second compound 0.316 µM, first compound 10 µM) 106% | viability, T/C (second compound 1 µM, first compound 0.0316 µM) 105% | viability, T/C (second compound 1 µM, first compound 0.1 µM) 101% | viability, T/C (second compound 1 µM, first compound 0.316 µM) 89.9% | viability, T/C (second compound 1 µM, first compound 1 µM) 73.1% | viability, T/C (second compound 1 µM, first compound 3.16 µM) 112% | viability, T/C (second compound 1 µM, first compound 10 µM) 104% | viability, T/C (second compound 3.16 µM, first compound 0.0316 µM) 107% | viability, T/C (second compound 3.16 µM, first compound 0.1 µM) 90.5% | viability, T/C (second compound 3.16 µM, first compound 0.316 µM) 109% | viability, T/C (second compound 3.16 µM, first compound 1 µM) 100% | viability, T/C (second compound 3.16 µM, first compound 3.16 µM) 109% | viability, T/C (second compound 3.16 µM, first compound 10 µM) 89.4% | viability, T/C (second compound 10 µM, first compound 0.0316 µM) 103% | viability, T/C (second compound 10 µM, first compound 0.1 µM) 79% | viability, T/C (second compound 10 µM, first compound 0.316 µM) 118% | viability, T/C (second compound 10 µM, first compound 1 µM) 91.2% | viability, T/C (second compound 10 µM, first compound 3.16 µM) 86.8% | viability, T/C (second compound 10 µM, first compound 10 µM) 83.2%
> 10 µM: IC50 (curve of first compound, second compound 0.0316 µM) | IC50 (curve of first compound, second compound 0.1 µM) | IC50 (curve of first compound, second compound 0.316 µM) | IC50 (curve of first compound, second compound 1 µM) | IC50 (curve of first compound, second compound 3.16 µM) | IC50 (curve of first compound, second compound 10 µM)

CC(=O)O[C@H]1C(=O)[C@@]2(C)[C@H]([C@H](OC(=O)c3ccccc3)[C@]3(O)C[C@H](OC(=O)[C@H](O)[C@@H](NC(=O)c4ccccc4)c4ccccc4)C(C)=C1C3(C)C)[C@]1(OC(C)=O)CO[C@@H]1C[C@@H]2O
inactive: viability, T/C (compound 0.00949 µM) 24.4% and 24.8% and 18.7% | viability, T/C (compound 0.03 µM) 21.9% and 23.1% and 18.1% | viability, T/C (compound 0.0949 µM) 18.5% and 17.9% (2×) | viability, T/C (compound 0.3 µM) 17.7% and 11.9% and 15.6% | viability, T/C (compound 0.949 µM) 18.8% and 15.4% and 12.7% | viability, T/C (compound 3 µM) 11.4% and 13% and 9.5%
< 0.00949 µM: IC50 (curve of compound)

Cn1ncnc1[C@H]1c2n[nH]c(=O)c3cc(F)cc(c23)N[C@@H]1c1ccc(F)cc1
> 0.1 µM and 0.0619 µM: IC50 (curve of compound)
inactive: viability, T/C (compound 0.000316 µM) 118% and 108% and 103% | viability, T/C (compound 0.001 µM) 82.7% and 80.6% and 106% | viability, T/C (compound 0.00316 µM) 69.9% and 79.6% and 106% | viability, T/C (compound 0.01 µM) 104% and 80% and 82.1% | viability, T/C (compound 0.0316 µM) 87.1% and 53.5% and 66.7% | viability, T/C (compound 0.1 µM) 65.3% and 44.1% and 65.5%

CCc1cc2c(N3CCc4c(cc(Cn5ccnc5)cc4-c4cn(C)nc4C(F)(F)F)C3=O)ccnc2c(OC)n1
> 10 µM and 8.11 µM: IC50 (curve of compound)
inactive: viability, T/C (compound 0.0316 µM) 89.4% and 91.8% and 73.3% | viability, T/C (compound 0.1 µM) 85.4% and 86.5% and 82.3% | viability, T/C (compound 0.316 µM) 85.9% and 66.4% and 74.3% | viability, T/C (compound 1 µM) 88.4% and 84% and 76.2% | viability, T/C (compound 3.16 µM) 80.5% and 83.7% and 102% | viability, T/C (compound 10 µM) 76% and 62.5% and 43%

O=C(c1cc(Cc2n[nH]c(=O)c3ccccc23)ccc1F)N1CCN(C(=O)C2CC2)CC1
5.19 µM and 4.15 µM and 4.32 µM: IC50 (curve of compound)
inactive: viability, T/C (compound 0.0316 µM) 98.7% and 77.9% and 85.7% | viability, T/C (compound 0.1 µM) 94% and 103% and 89.2% | viability, T/C (compound 0.316 µM) 101% and 90.9% and 80.3% | viability, T/C (compound 1 µM) 91.5% and 88.8% and 54.5% | viability, T/C (compound 3.16 µM) 63.4% and 55.2% and 62.6% | viability, T/C (compound 10 µM) 32.4% and 33.3% and 36.9%
